Laboratory results: patent US10654896B2, “FoxP3-binding peptides and uses thereof” (FUNDACIÓN PARA LA INVESTIGACIÓN MÉDICA APLICADA, priority 2016, dated 2020)
Where a SMILES comes first, the peptide text is derived from it. [ ]: non-standard residue; d: D form.

Tests used:
[1] = Human liver microsomal stability; format: in vitro ADME; conditions: human liver microsomes; for remaining at 20 min, 1 μM: read-out: % Remaining after 20 min; for remaining at 1 h, 1 μM: 60 min, read-out: % Remaining after 60 min; for half-life: peptide 1 μM, read-out: t1/2
[2] = Mouse liver microsomal stability; format: in vitro ADME; conditions: mouse liver microsomes; for remaining at 20 min, 1 μM: read-out: % Remaining after 20 min; for remaining at 1 h, 1 μM: 60 min, read-out: % Remaining after 60 min; for half-life: peptide 1 μM
[3] = target: T1, FOXP3/FOXP3 homodimerization (Homo sapiens, UniProt Q9BZS1); experiment: FOXP3/FOXP3 homodimerization inhibition (Alphascreen); format: biochemical
T1 construct: made in house; host or cells: E. coli BL21 (DE3)
T1 sequence (Q9BZS1 1-431): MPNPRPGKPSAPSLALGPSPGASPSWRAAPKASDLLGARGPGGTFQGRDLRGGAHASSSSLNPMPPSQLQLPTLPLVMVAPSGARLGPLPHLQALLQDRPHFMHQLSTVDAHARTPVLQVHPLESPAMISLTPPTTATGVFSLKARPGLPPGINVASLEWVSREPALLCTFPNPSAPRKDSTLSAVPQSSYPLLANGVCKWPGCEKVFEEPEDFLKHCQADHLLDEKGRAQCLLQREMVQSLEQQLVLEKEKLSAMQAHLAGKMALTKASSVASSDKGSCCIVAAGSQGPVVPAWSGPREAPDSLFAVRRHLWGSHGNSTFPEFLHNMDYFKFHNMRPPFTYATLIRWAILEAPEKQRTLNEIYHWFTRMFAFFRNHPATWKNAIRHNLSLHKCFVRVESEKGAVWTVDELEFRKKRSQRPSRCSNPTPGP
Text: Plasmid pET20b FOXP3-His was generated to produce the human FOXP3 tagged with 6 histidines at the C terminus of the protein. Briefly, plasmid pDEST15-FOXP3 (provided by Dr. Casal, Madrid, Spain) was used as template to amplify FOXP3 by PCR using the primers Upper FOXP3 Ndel catatgcccaaccccaggc (SEQ ID NO: 55) and Lower FOXP3 […] (SEQ ID NO: 56). The resulting fragment was subcloned in pET20b at Ndel and NotI sites. pET45b His-Runx1 was obtained by PCR of activated human CD4 T cells obtained from healthy volunteers (after the signature of an informed consent) using the primers Upper Runx1 atgcgtatccccgtagatg (SEQ ID NO: 57) and Lower Runx1 […] (SEQ ID NO: 58) and the fragment was cloned in pcDNA3.1. Then, pET45b and pcDNA3.1-Runx1 were digested with BamHI and NotI and ligated to obtain pET45b-Runx1. Plasmids were used to transform BL21 cells (DE3; Novagen, Schwalbach, Germany) for the expression of the recombinant protein. The transformed BL21 cells were grown in LB medium at 37° C. (1 liter of final culture medium) (with ampicilin 0.1 mg/ml). Once the OD of the culture was between 0.5 and 1.0, IPTG (0.4 mM, final concentration) was added. Bacteria were then cultured overnight in agitation and centrifuged for 10 min at 8000 rpm. Cell pellet was then resuspended in 4 ml Tris-HCl 0.1 M and frozen at −80° C. Cell pellet was then thawed and incubated with lisozyme (25 KU) and a protease inhibitor cocktail for 15 min at 30° C. before cell lysis induced with a French-press. The resultant pool was then centrifuged during 20 min at 11.000 rpm). The recombinant protein was purified from the soluble fraction of French-press cell extracts by affinity chromatography (Histrap, Pharmacia) following manufacturer's instructions and using an FPLC platform (AKTA, Pharmacia). Plasmid pDEST15-FOXP3 encoding the fusion protein GST-FOXP3 (GST fused to the isoform A from human FOXP3 gene), was transformed into BL21 cells for the expression of the recombinant protein. GST-FOXP3 protein was purified from the soluble fraction of cell extracts obtained, as described above, by affinity chromatography (GSTrap; Amersham, Piscataway, N.J.) using a fast protein liquid chromatography platform (AKTA; Amersham) following manufacturer's instructions. The eluted proteins were desalted using Hitrap desalting columns (Pharmacia) and analyzed by SDS-PAGE using Coomassie blue (Bio-Safe Coomassie reagent; Bio-Rad, Hercules, Calif.) and by Western blot.
It has been described that dimerization of FOXP3 is required for its function as a transcriptional regulator. Moreover, interaction between FOXP3 and the transcription factor Runx1, is crucially required for normal hematopoiesis including thymic T-cell development, but also for Treg suppressor activity (Reviewed in Lozano et al, Front Oncol. 2013, 3:294). Both activities are mediated by the intermediate region of Foxp3, which is the area of interaction between P60 and Foxp3. Thus, we studied the effect of P60 and their mutants on the FOXP3/Runx1 heterodimerization, as well as FOXP3/FOXP3 homodimerization by Alphascreen technology according to the manufacturer's instructions (Perkin Elmer, Benelux). AlphaScreen™ is a bead-based technology that is designed to measure the proximity of donor and acceptor beads conjugated to biomolecules of interest.
To measure FOXP3/FOXP3 homodimerization, recombinant Foxp3 was expressed with a Histine tag as disclosed in section (1) above, and captured by Nickel chelate Acceptor beads (Cat. AL108 Perkin Elmer) following manufacturer's instructions. The other version of recombinant FOXP3, expressing a GST tag (prepared as disclosed in section (1) above), was captured by Glutathione Donor beads (Perkin Elmer Cat. 6765300), following manufacturer's instructions. When the two proteins interacted together, the Donor and Acceptor beads come into proximity. Excitation of the Donor beads results in emission of light from the Acceptor beads. […]

| Compound | remaining at 20 min, 1 μM [1] [%] | remaining at 1 h, 1 μM [1] [%] | half-life [1] [min] | remaining at 20 min, 1 μM [2] [%] | remaining at 1 h, 1 μM [2] [%] | half-life [2] [min] | inhibition at 100 µM ([3]; read-out: Dimerization inhibition % inhibition (100 μM)) [%] | inhibition at 20 µM ([3]; read-out: Dimerization inhibition % inhibition (20 μM)) [%] |
| --- | --- | --- | --- | --- | --- | --- | --- | --- |
| CSCC[C@@H]1NC(=O)[C@H](C)NC(=O)[C@H](Cc2ccccc2)NC(=O)[C@H](Cc2ccccc2)NC(=O)[C@@H]2CCCN2C(=O)[C@H](Cc2c[nH]c3ccccc23)NC(=O)[C@H](CCSC)NC(=O)[C@H](CCCCN)NC(=O)[C@H](CCCNC(=N)N)NC(=O)[C@H](Cc2ccccc2)NC(=O)[C@H](C)NC(=O)[C@H](CCC(N)=O)NC(=O)[C@H](Cc2ccccc2)NC(=O)[C@H](C)NC(=O)[C@H](CCCNC(=N)N)NC1=O [compound 50] (cyclo(RAFQAFRKMWPFFAM)) | 6.2 | 0 | 5.3 | 12 | 0 | 8 |  |  |
| H-RDFQSFRKMWPFFAM-OH [compound 1] |  |  |  |  |  |  | 59.7 |  |
| CSCC[C@H](NC(=O)[C@H](C)NC(=O)[C@H](Cc1ccccc1)NC(=O)[C@H](Cc1ccccc1)NC(=O)[C@@H]1CCCN1C(=O)[C@H](Cc1c[nH]c2ccccc12)NC(=O)[C@H](CCSC)NC(=O)[C@H](CCCCN)NC(=O)[C@H](CCCNC(=N)N)NC(=O)[C@H](Cc1ccccc1)NC(=O)[C@H](CO)NC(=O)[C@H](CCC(N)=O)NC(=O)[C@H](Cc1ccccc1)NC(=O)[C@H](C)NC(=O)[C@H](N)CCCNC(=N)N)C(=O)O [compound 46] (H-[dR]AFQSFRKMWPFFAM-OH; N-terminus and C-terminus assumed) |  |  |  |  |  |  |  | 90 |
| CSCC[C@H](NC(=O)[C@H](C)NC(=O)[C@H](Cc1ccccc1)NC(=O)[C@H](Cc1ccccc1)NC(=O)[C@@H]1CCCN1C(=O)[C@H](Cc1c[nH]c2ccccc12)NC(=O)[C@H](CCSC)NC(=O)[C@H](CCCCN)NC(=O)[C@H](CCCNC(=N)N)NC(=O)[C@H](Cc1ccccc1)NC(=O)[C@H](CO)NC(=O)[C@H](CCC(N)=O)NC(=O)[C@H](Cc1ccccc1)NC(=O)[C@@H](CC(=O)O)NC(=O)[C@@H](N)CCCNC(=N)N)C(=O)O [compound 3] (H-R[dD]FQSFRKMWPFFAM-OH) | 0 | 0 | < 2.5 | 0 | 0 | < 2.5 |  |  |
